Measured values: ChEMBL document CHEMBL5579829, “Discovery of a potent CDKs/FLT3 PROTAC with enhanced differentiation and proliferation inhibition for AML” (Eur J Med Chem, 2024)

What was measured:
[1] = target: T1, Protein cereblon/Cyclin-dependent kinase 2 (Homo sapiens, UniProt P24941+Q96SW2); test: Protac activity at CRBN/CDK2 in human HL-60 cells assessed as induction of CDK2 degradation by Western blot analysis; assay type: cell-based
[2] = target: T1, Protein cereblon/Cyclin-dependent kinase 2; test: Protac activity at CRBN/CDK2 in human HL-60 cells assessed as induction of CDK2 degradation by Western blot analysis relative to control; assay type: cell-based
HL-60 [3] = test: Antiproliferative activity against human HL-60 cells measured after 1 to 3 days by CCK-8 assay; assay type: functional, cell-based
[4] = target: von Hippel-Lindau disease tumor suppressor/Receptor-type tyrosine-protein kinase FLT3 (Homo sapiens, UniProt P36888+P40337); test: Protac activity at VHL/FLT3-ITD (unknown origin) assessed as induction of FLT3 degradation
[5] = target: Protein cereblon/Cyclin-dependent kinase 4 (Homo sapiens, UniProt P11802+Q96SW2); test: Protac activity at CRBN/CDK4 in human MDA-MB-231 cells assessed as induction of CDK4 degradation measured after 18 hrs by Western blot analysis; assay type: cell-based
[6] = target: Protein cereblon/Cyclin-dependent kinase 6 (Homo sapiens, UniProt Q00534+Q96SW2); test: Protac activity at CRBN/CDK6 in human MDA-MB-231 cells assessed as induction of CDK6 degradation measured after 18 hrs by Western blot analysis; assay type: cell-based
[7] = target: T1, Protein cereblon/Cyclin-dependent kinase 2; test: Protac activity at CRBN/CDK2 in human OVCAR-8 cells assessed as induction of CDK2 degradation measured after 6 hrs by Western blot analysis; assay type: cell-based
[8] = target: Protein cereblon/Cyclin-dependent kinase 9 (Homo sapiens, UniProt P50750+Q96SW2); test: Protac activity at CRBN/CDK9 in human OVCAR-8 cells assessed as induction of CDK9 degradation measured after 6 hrs by Western blot analysis; assay type: cell-based
[9] = target: T1, Protein cereblon/Cyclin-dependent kinase 2; test: Protac activity at CRBN/CDK2 in human Kasumi 1 cells assessed as induction of CDK2 degradation measured after 48 hrs by Western blot analysis; assay type: cell-based
HL-60 [10] = test: Induction of pro-differentiation of human HL-60 cells assessed as CD11b expression at 500 nM measured after 3 days by immunostaining-based flow cytometry (reference value: 8.32 to 10.55%); assay type: functional; conditions: time 3 day
HL-60 [11] = test: Induction of pro-differentiation of human HL-60 cells assessed as CD11b expression at 500 nM measured after 5 days by immunostaining-based flow cytometry (reference value: 10.08 to 10.33%); assay type: functional; conditions: time 5 day

Protein cereblon/Cyclin-dependent kinase 6, sequence (Q00534 whole entry): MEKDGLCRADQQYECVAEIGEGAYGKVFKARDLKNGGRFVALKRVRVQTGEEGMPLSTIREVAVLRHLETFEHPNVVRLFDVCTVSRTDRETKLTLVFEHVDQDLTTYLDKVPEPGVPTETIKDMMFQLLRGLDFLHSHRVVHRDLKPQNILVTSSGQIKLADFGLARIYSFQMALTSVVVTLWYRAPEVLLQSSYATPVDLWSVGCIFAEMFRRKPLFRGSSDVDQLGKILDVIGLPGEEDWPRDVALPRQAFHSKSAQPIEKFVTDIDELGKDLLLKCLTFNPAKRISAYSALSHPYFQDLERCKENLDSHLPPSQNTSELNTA
Protein cereblon/Cyclin-dependent kinase 6, sequence (Q96SW2 whole entry): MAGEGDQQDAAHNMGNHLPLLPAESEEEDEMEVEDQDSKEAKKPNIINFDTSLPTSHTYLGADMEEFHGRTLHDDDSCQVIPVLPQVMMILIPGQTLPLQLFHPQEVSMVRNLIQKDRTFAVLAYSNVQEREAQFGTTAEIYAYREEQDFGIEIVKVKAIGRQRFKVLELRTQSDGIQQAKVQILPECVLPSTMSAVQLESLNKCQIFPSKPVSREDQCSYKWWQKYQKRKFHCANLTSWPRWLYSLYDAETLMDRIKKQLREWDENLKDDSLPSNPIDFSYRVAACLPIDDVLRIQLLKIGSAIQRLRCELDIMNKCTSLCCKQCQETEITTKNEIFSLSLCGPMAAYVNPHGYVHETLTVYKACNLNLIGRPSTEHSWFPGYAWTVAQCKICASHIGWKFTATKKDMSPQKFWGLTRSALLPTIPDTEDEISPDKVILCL
Protein cereblon/Cyclin-dependent kinase 9, sequence (P50750 whole entry): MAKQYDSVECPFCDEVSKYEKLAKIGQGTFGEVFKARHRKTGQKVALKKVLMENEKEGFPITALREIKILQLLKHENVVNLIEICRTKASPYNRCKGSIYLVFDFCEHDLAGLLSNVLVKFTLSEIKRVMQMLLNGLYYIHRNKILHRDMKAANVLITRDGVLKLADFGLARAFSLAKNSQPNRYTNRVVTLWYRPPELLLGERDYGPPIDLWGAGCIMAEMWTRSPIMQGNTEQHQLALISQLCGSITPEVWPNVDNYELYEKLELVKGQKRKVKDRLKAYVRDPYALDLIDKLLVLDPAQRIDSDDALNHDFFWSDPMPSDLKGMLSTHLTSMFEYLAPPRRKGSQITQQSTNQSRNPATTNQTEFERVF
Protein cereblon/Cyclin-dependent kinase 9, sequence (Q96SW2 whole entry): as the sequence (Q96SW2 whole entry) above
von Hippel-Lindau disease tumor suppressor/Receptor-type tyrosine-protein kinase FLT3, sequence (P36888 whole entry, looked up, change not shown): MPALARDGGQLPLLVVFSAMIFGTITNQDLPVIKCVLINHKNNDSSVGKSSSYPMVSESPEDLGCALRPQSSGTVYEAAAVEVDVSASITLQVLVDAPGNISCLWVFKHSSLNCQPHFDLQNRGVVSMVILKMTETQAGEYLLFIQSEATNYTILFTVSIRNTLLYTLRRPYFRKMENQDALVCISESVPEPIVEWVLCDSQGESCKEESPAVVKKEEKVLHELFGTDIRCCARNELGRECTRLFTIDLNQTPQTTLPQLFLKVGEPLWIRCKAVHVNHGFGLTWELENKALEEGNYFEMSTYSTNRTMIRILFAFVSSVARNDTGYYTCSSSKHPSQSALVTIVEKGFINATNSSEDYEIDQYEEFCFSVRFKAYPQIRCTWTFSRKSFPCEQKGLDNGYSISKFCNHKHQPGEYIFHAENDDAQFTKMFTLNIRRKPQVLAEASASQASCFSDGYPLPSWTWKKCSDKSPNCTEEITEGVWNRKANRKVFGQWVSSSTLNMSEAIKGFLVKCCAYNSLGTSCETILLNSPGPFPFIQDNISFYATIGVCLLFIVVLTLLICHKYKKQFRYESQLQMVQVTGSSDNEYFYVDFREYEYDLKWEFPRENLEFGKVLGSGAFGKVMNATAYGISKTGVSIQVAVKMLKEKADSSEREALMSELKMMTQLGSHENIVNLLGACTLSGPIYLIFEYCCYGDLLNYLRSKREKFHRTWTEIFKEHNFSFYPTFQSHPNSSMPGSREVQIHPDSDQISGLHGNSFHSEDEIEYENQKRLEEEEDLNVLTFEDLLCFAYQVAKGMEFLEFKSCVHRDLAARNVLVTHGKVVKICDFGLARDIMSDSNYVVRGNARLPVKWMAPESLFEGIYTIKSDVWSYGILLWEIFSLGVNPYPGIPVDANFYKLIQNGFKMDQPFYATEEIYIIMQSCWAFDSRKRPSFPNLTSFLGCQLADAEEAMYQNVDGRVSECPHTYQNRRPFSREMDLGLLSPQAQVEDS
von Hippel-Lindau disease tumor suppressor/Receptor-type tyrosine-protein kinase FLT3, sequence (P40337 whole entry, looked up, change not shown): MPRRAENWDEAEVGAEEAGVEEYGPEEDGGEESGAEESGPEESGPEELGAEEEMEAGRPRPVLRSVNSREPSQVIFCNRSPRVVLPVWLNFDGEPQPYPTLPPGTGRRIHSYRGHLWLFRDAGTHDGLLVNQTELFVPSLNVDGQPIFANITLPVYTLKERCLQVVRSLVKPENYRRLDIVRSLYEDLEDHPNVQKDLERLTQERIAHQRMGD
Protein cereblon/Cyclin-dependent kinase 4, sequence (P11802 whole entry): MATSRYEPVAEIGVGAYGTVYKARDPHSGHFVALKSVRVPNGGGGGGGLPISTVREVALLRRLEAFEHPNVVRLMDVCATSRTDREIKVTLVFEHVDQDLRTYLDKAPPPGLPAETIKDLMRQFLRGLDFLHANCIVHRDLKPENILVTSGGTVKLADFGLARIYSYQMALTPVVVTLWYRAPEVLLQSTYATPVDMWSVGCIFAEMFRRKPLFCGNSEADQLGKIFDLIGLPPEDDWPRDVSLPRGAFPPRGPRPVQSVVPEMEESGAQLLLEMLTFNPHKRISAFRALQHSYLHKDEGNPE
Protein cereblon/Cyclin-dependent kinase 4, sequence (Q96SW2 whole entry): as the sequence (Q96SW2 whole entry) above

Row | DC50 [1] [nM] | Emax [2] [%] | IC50 (HL-60 [3]) [nM] | Compound | also measured
1 | 11.2 | 65.8 | 11.5 | O=C1CCC(N2C(=O)c3ccc(N4CC(CN5CCC(CCN6CCC(NC(=O)c7n[nH]cc7NC(=O)c7c(Cl)cccc7Cl)CC6)CC5)C4)cc3C2=O)C(=O)N1 (stereo not drawn) | –
2 | 1.17 | 75.8 | 44.6 | O=C1CCC(N2C(=O)c3ccc(N4CCC(CN5CCC(NC(=O)c6n[nH]cc6NC(=O)c6c(Cl)cccc6Cl)CC5)CC4)cc3C2=O)C(=O)N1 (stereo not drawn) | –
3 | – | – | – | CCc1nc(C(N)=O)c(Nc2ccc(N3CCN(CCC4CCN(CC(=O)N[C@H](C(=O)N5C[C@H](O)C[C@H]5C(=O)N[C@@H](C)c5ccc(-c6scnc6C)cc5)C(C)(C)C)CC4)CC3)c(OC)c2)nc1NC1CCOCC1 | DC50 [4]: 7.62 nM
4 | 1.63 | 76.1 | 11.7 | O=C1CCC(N2C(=O)c3ccc(N4CCC(CN5CCN(Cc6ccc(NC(=O)c7n[nH]cc7Nc7ncnc8[nH]ccc78)cc6)CC5)C4)cc3C2=O)C(=O)N1 (stereo not drawn) | –
5 | > 100 | 43.3 | – | O=C1CCC(N2C(=O)c3ccc(N4CC(CN5CCC(N6CCC(NC(=O)c7n[nH]cc7NC(=O)c7c(Cl)cccc7Cl)CC6)CC5)C4)cc3C2=O)C(=O)N1 (stereo not drawn) | –
6 | – | – | – | CC(=O)c1c(C)c2cnc(Nc3ccc(N4CCN(Cc5cn(CCCCCC(=O)Nc6cccc7c6C(=O)N(C6CCC(=O)NC6=O)C7=O)nn5)CC4)cn3)nc2n(C2CCCC2)c1=O (stereo not drawn) | DC50 [5]: 12.9 nM; DC50 [6]: 34.1 nM
7 | – | – | – | O=C(CCC(=O)N1CCN(Cc2ccc(NC(=O)c3n[nH]cc3Nc3ncnc4[nH]ccc34)cc2)CC1)NCCNc1cccc2c1C(=O)N(C1CCC(=O)NC1=O)C2=O (stereo not drawn) | DC50 [7]: 62 nM; DC50 [8]: 33 nM
8 | – | – | > 1000 | Cc1ccsc1C(=O)n1nc(Nc2ccc(S(=O)(=O)NCCOCc3cn(CCOCCOCCNc4cccc5c4C(=O)N(C4CCC(=O)NC4=O)C5=O)nn3)cc2)nc1N (stereo not drawn) | DC50 [9]: 61 nM; Activity (HL-60 [10]): 26.84%; Activity (HL-60 [11]): 34.38%
9 | > 100 | – | – | O=C1CCC(N2C(=O)c3ccc(N4CC(C(=O)N5CCC(N6CCC(NC(=O)c7n[nH]cc7NC(=O)c7c(Cl)cccc7Cl)CC6)CC5)C4)cc3C2=O)C(=O)N1 (stereo not drawn) | –
10 | > 100 | 34.2 | – | O=C1CCC(N2C(=O)c3ccc(N4CC(C(=O)N5CCC(NC(=O)c6n[nH]cc6NC(=O)c6c(Cl)cccc6Cl)CC5)C4)cc3C2=O)C(=O)N1 (stereo not drawn) | –
11 | > 100 | 31.8 | – | O=C1CCC(N2C(=O)c3ccc(N4CCC(CN5CCC(CN6CCC(NC(=O)c7n[nH]cc7NC(=O)c7c(Cl)cccc7Cl)CC6)CC5)CC4)cc3C2=O)C(=O)N1 (stereo not drawn) | –
12 | > 100 | 38.9 | – | O=C1CCC(N2C(=O)c3ccc(N4CCC(CN5CCC(CCN6CCC(NC(=O)c7n[nH]cc7NC(=O)c7c(Cl)cccc7Cl)CC6)CC5)C4)cc3C2=O)C(=O)N1 (stereo not drawn) | –
13 | > 100 | – | – | O=C1CCC(N2C(=O)c3ccc(N4CCC(CN5CCC(CN6CCC(NC(=O)c7n[nH]cc7NC(=O)c7c(Cl)cccc7Cl)CC6)CC5)C4)cc3C2=O)C(=O)N1 (stereo not drawn) | –
14 | > 100 | 43.5 | – | O=C1CCC(N2C(=O)c3ccc(N4CCC(CN5CCC(CCN6CCC(NC(=O)c7n[nH]cc7NC(=O)c7c(Cl)cccc7Cl)CC6)CC5)CC4)cc3C2=O)C(=O)N1 (stereo not drawn) | –
15 | 1.23 | 58.8 | 13.4 | O=C1CCC(N2C(=O)c3ccc(N4CC(CN5CCN(Cc6ccc(NC(=O)c7n[nH]cc7Nc7ncnc8[nH]ccc78)cc6)CC5)C4)cc3C2=O)C(=O)N1 (stereo not drawn) | –
16 | 13 | 63.2 | 20.4 | O=C1CCC(N2C(=O)c3ccc(N4CC(CN5CCC(NC(=O)c6n[nH]cc6NC(=O)c6c(Cl)cccc6Cl)CC5)C4)cc3C2=O)C(=O)N1 (stereo not drawn) | –
17 | 26.5 | 54.9 | 24.1 | O=C1CCC(N2C(=O)c3ccc(N4CCC(CCN5CCC(NC(=O)c6n[nH]cc6NC(=O)c6c(Cl)cccc6Cl)CC5)CC4)cc3C2=O)C(=O)N1 (stereo not drawn) | –
18 | > 100 | 47.9 | – | O=C1CCC(N2C(=O)c3ccc(N4CCC(C(=O)N5CCN(Cc6ccc(NC(=O)c7n[nH]cc7Nc7ncnc8[nH]ccc78)cc6)CC5)CC4)cc3C2=O)C(=O)N1 (stereo not drawn) | –
19 | > 100 | – | – | O=C1CCC(N2C(=O)c3ccc(N4CCC(C(=O)N5CCC(N6CCC(NC(=O)c7n[nH]cc7NC(=O)c7c(Cl)cccc7Cl)CC6)CC5)CC4)cc3C2=O)C(=O)N1 (stereo not drawn) | –
20 | 7.13 | 59.1 | 14 | O=C1CCC(N2C(=O)c3ccc(N4CCC(N5CCC(NC(=O)c6n[nH]cc6NC(=O)c6c(Cl)cccc6Cl)CC5)C4)cc3C2=O)C(=O)N1 (stereo not drawn) | –
21 | 26.1 | 72.8 | 17.8 | O=C1CCC(N2C(=O)c3ccc(N4CC(N5CCC(NC(=O)c6n[nH]cc6NC(=O)c6c(Cl)cccc6Cl)CC5)C4)cc3C2=O)C(=O)N1 (stereo not drawn) | –
22 | 2.8 | 79.2 | 24.4 | O=C1CCC(N2C(=O)c3ccc(N4CCC(N5CCC(NC(=O)c6n[nH]cc6NC(=O)c6c(Cl)cccc6Cl)CC5)CC4)cc3C2=O)C(=O)N1 (stereo not drawn) | –
23 | 4.71 | 67.3 | 40.8 | O=C1CCC(N2C(=O)c3ccc(N4CCC(CN5CCC(NC(=O)c6n[nH]cc6NC(=O)c6c(Cl)cccc6Cl)CC5)C4)cc3C2=O)C(=O)N1 (stereo not drawn) | –
24 | > 100 | 28.9 | – | O=C1CCC(N2C(=O)c3ccc(N4CCC(CN5CCC(N6CCC(NC(=O)c7n[nH]cc7NC(=O)c7c(Cl)cccc7Cl)CC6)CC5)C4)cc3C2=O)C(=O)N1 (stereo not drawn) | –
25 | > 100 | 9.07 | – | O=C1CCC(N2C(=O)c3ccc(N4CC(CN5CCC(CN6CCC(NC(=O)c7n[nH]cc7NC(=O)c7c(Cl)cccc7Cl)CC6)CC5)C4)cc3C2=O)C(=O)N1 (stereo not drawn) | –
26 | > 100 | – | – | O=C1CCC(N2C(=O)c3ccc(N4CCC(CN5CCC(N6CCC(NC(=O)c7n[nH]cc7NC(=O)c7c(Cl)cccc7Cl)CC6)CC5)CC4)cc3C2=O)C(=O)N1 (stereo not drawn) | –
27 | – | – | 89.3 | CN1CCN(Cc2ccc(NC(=O)c3n[nH]cc3Nc3ncnc4[nH]ccc34)cc2)CC1 | –
28 | 93.3 | 59.3 | – | O=C1CCC(N2C(=O)c3ccc(N4CCC(C(=O)N5CCC(NC(=O)c6n[nH]cc6NC(=O)c6c(Cl)cccc6Cl)CC5)CC4)cc3C2=O)C(=O)N1 (stereo not drawn) | –
29 | – | – | 135 | O=C(NC1CCNCC1)c1n[nH]cc1NC(=O)c1c(Cl)cccc1Cl [AT-7519] | –
